Like-named read-outs stand apart in the source and are kept apart here.
Experiments:
DNMT2 = target: T1, DNMT2 (Homo sapiens, UniProt O14717); experiment: Microscale thermophoresis (MST) binding assay, DNMT2; conditions: for MST pre-screening: DNMT2, ligand concentration 33, 100, 300 µM
T1 construct: made in house; host or cells: E. coli Rosetta2
T1 sequence (O14717 1-391): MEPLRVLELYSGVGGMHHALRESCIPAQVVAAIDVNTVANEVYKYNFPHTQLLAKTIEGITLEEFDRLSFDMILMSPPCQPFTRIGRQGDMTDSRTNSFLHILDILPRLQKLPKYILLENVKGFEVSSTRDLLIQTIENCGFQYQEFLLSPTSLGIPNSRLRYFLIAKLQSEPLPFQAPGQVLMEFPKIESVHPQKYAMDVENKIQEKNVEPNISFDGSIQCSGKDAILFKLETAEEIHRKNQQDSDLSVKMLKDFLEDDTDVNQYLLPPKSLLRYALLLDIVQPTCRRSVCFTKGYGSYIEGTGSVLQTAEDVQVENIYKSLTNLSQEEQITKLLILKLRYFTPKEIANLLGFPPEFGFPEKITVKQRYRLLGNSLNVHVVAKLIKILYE
Procedure: (§1) Since the constructs of DNMT2 and NSUN6 contain hexa-histidine tags, proteins were labeled using a Monolith His-Tag Labeling Kit RED-Tris-NTA 2nd generation according to the manufacturer’s instructions. This labeling strategy was chosen since it should prevent any interference with the actual binding site of the proteins. Labeled protein was diluted to a concentration of 20 nM into MST buffer (50 mM Hepes, pH 7.5, 150 mM NaCl, 10 mM MgCl2, 1 mM DTT, 0.05% polysorbate-20, 0.1% PEG-8000). All compounds were prepared as stocks dissolved in DMSO to a concentration of 50 mM. […] All measurements were performed on a Monolith Pico instrument (NanoTemper Technologies, Muenchen, Germany) with red light. To induce thermophoresis, medium MST power was selected for DNMT2 and high MST power for NSUN6. All experiments were performed in quadruplicates. […] Obtained dilutions were then mixed 1:1 with labeled protein (20 nM) and incubated for 5 min at room temperature prior to measurement. Experiments were performed in duplicates. All data received were analyzed using the MO. Affinity Analysis software version 2.3 (NanoTemper Technologies, Muenchen, Germany).

NSUN6 = target: T2, NSUN6 (Homo sapiens, UniProt Q8TEA1); experiment: Microscale thermophoresis (MST) binding assay, NSUN6; conditions: for MST pre-screening: ligand concentration 33, 100, 300 µM; for Kd: MST dose-response curve
T2 construct: host or cells: E. coli Rosetta2
T2 sequence (Q8TEA1 1-469): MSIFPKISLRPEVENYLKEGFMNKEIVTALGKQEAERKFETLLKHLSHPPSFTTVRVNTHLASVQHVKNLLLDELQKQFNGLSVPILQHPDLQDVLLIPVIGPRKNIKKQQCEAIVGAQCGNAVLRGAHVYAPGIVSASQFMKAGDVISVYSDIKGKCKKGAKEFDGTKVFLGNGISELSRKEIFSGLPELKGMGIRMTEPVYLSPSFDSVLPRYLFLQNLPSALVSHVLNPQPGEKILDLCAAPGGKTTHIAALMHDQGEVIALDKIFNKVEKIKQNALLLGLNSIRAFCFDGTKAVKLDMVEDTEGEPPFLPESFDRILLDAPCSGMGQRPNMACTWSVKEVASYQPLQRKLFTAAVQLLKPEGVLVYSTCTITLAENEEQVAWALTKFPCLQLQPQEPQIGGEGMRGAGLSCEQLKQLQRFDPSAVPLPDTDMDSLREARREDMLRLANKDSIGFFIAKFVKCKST
Procedure: as §1

[1] = NSUN6, ≥ = lower limit, upper plateau not completely reached, read-out: KD,app

Kd (NSUN6; [1]) [µM] | SMILES | MST pre-screening (DNMT2) | MST pre-screening (NSUN6; NSUN6) | other results
 | Cc1n[nH]c(C)c1NC(=O)CN1CCN(C(=O)c2ccc(C(N)=O)s2)CC1 [Compound 1.2] | no concentration-dependent MST-shift (no binding) |  | 
 | CN1CCC[C@@H]1CCC(=O)Nc1c[nH]nc1C(=O)NCC(N)=O [Compound 2.6] |  | no concentration-dependent MST-shift (no binding) | 
 | O=C([C@@H]1NC[C@@H](O)[C@H]1O)N1CCN([C@@H]2CCN(c3ccccc3)C2=O)CC1 [Compound 2.11] |  | no concentration-dependent MST-shift (no binding) | 
42 | COc1ccc(C(=O)Nc2cccc(CN[C@H](CN)CO)c2)cc1 [Compound 2.8] |  | concentration-dependent MST-shift (binding) | MST result DNMT2 ('off-target'/selectivity) (DNMT2; no MST shift at ligand concentration of up to 300 µM): [drawing 33] No binding; selectivity for NSUN6 over DNMT2 (DNMT2; selective = no MST shift for the other enzyme up to 300 µM): selectivity
 | N[C@H](CCS(N)(=O)=O)C(=O)Nc1ccc(C2CCNCC2)cc1 [Compound 2.3] |  | no concentration-dependent MST-shift (no binding) | 
16.4 | Cn1cnc([C@@H]2CNC[C@H]2C(=O)N2CCC[C@@H](CNC(=O)[C@H]3CCCN3)C2)c1 (racemic) [Compound 2.4] |  | concentration-dependent MST-shift (binding) | 
 | CNC(=O)c1cccc(CN2CCC[C@H](NC(=O)c3coc(C(N)=O)c3)C2)c1 [Compound 1.5] | no concentration-dependent MST-shift (no binding) |  | 
≥ 369 | CN1CCN(CC[C@@H](N)C(=O)Nc2ccc(-n3ccc(O)n3)c(F)c2)CC1 (racemic) [Compound 2.1] |  | concentration-dependent MST-shift (binding) | 
 | Nc1ncnc2c1ncn2[C@@H]1O[C@H](CSCC[C@H](N)C(=O)O)[C@@H](O)[C@H]1O [SAH, S-adenosyl-L-homocysteine, reference compound] |  |  | Kd (DNMT2; MST dose-response curve, DNMT2, reference ligand): 11.8 µM; Kd (NSUN6; NSUN6, reference ligand, read-out: KD): 9.1 µM
 | CNC(=O)c1cccc(CN[C@H]2CCCN(C(=O)c3coc(C(N)=O)c3)C2)c1 [Compound 1.3] | no concentration-dependent MST-shift (no binding) |  | 
 | Cc1ccc(F)c(-n2cc(O)c(C(=O)NNc3cc(O)nc4ncccc34)n2)c1 [Compound 1.16] | no concentration-dependent MST-shift (no binding) |  | 
≥ 116 | Nc1ncnc2cc(C(=O)NCC(=O)Nc3ccc4c(c3)OCCO4)ccc12 [Compound 1.14] |  |  | 
12 | O=C(NCCN/C(O)=C1\N=CC=CC1=O)Nc1cccc2c1CNC2=O [Compound 1.4] |  |  | 
 | O=C(NCc1cccc2ncccc12)Nc1ccc(C[C@H]2NC(=O)NC2=O)cc1 [Compound 1.12] | no concentration-dependent MST-shift (no binding) |  | 
 | C[C@@H](NC(=O)Nc1ccc(C(N)=O)c(F)c1)c1cccc(N2CCOC2=O)c1 [Compound 1.9] | no concentration-dependent MST-shift (no binding) |  | 

From article PMC10094593, “Chemical Space Virtual Screening against Hard-to-Drug RNA Methyltransferases DNMT2 and NSUN6” (International Journal of Molecular Sciences, 2023)
